In brackets after ≈: the same amount, converted by molar mass. Where two headings read alike, the source gives them in different places. Blank lines part the entries; values can stand above or below the compound they belong to.
Experiments:
[1] = Determination of the maximum tolerated dose (MTD), once weekly i.v.; settings: athymic nude, mouse, in vivo, iv
Text: Mice bearing SW480 colorectal cancer xenografts are used to test and compare the anti-cancer efficacy and tolerability of intravenous (i.v.) application of the prodrug according to Example 1 (S-2,6-diamino-hexanoic acid [4-(2-{2-[4-(2-cyano-ethylamino)-furazan-3-yl]-benzoimidazol-1-yl}-acetyl)-phenyl]-amide hydrochloride salt) and the corresponding parent drug” (3-(4-{1-[2-(4-amino-phenyl)-2-oxo-ethyl]-1H-benzoimidazol-2-yl}-furazan-3-ylamino)-propionitrile) at the maximum tolerated dose level (MTD). Prior to the efficacy experiment, a determination of the MTD of each compound administered once weekly is performed in non-tumor-bearing nude mice of the same strain. Administration of 24.5 mg/kg prodrug and 10 mg/kg parent drug, given as an i.v. bolus once weekly, results in body weight losses >10% in a few animals in both groups. The MTDs in tumor-bearing mice are, therefore, determined to be 15-20% lower, resulting in doses of 21 mg/kg prodrug and 8 mg/kg parent drug. Human colorectal carcinoma cells (SW480) are injected subcutaneously (4×10^6 cells) into the back of 4-8-week old athymic nude mice. Tumor volumes are determined from calliper measurements of tumor length (L) and width (1) according to the formula (L×l^2)/2. Tumors are allowed to expand to a volume of 200 mm^3 (±10%) before treatment start. […] Tumor volume and body weight are monitored daily.

[2] = system: SW480 colorectal cancer xenografts; test: In vivo efficacy studies, SW480 xenografts; set-up: species or system athymic nude mice; settings: for final T/C (ratio of tumor volume in the treatment group vs. the control group) at day 24: once weekly i.v. for 24 days, prodrug 21 mg/kg, parent drug 8 mg/kg; for final T/C (day 24): three times per week (d1/4/7) i.v. for 24 days, prodrug 7.1 mg/kg
Text: Mice bearing SW480 colorectal cancer xenografts are used to test and compare the anti-cancer efficacy and tolerability of intravenous (i.v.) application of the prodrug according to Example 1 (S-2,6-diamino-hexanoic acid [4-(2-{2-[4-(2-cyano-ethylamino)-furazan-3-yl]-benzoimidazol-1-yl}-acetyl)-phenyl]-amide hydrochloride salt) and the corresponding parent drug” (3-(4-{1-[2-(4-amino-phenyl)-2-oxo-ethyl]-1H-benzoimidazol-2-yl}-furazan-3-ylamino)-propionitrile) at the maximum tolerated dose level (MTD). Prior to the efficacy experiment, a determination of the MTD of each compound administered once weekly is performed in non-tumor-bearing nude mice of the same strain. Administration of 24.5 mg/kg prodrug and 10 mg/kg parent drug, given as an i.v. bolus once weekly, results in body weight losses >10% in a few animals in both groups. The MTDs in tumor-bearing mice are, therefore, determined to be 15-20% lower, resulting in doses of 21 mg/kg prodrug and 8 mg/kg parent drug. Human colorectal carcinoma cells (SW480) are injected subcutaneously (4×10^6 cells) into the back of 4-8-week old athymic nude mice. Tumor volumes are determined from calliper measurements of tumor length (L) and width (1) according to the formula (L×l^2)/2. Tumors are allowed to expand to a volume of 200 mm^3 (±10%) before treatment start. The prodrug and parent drug are administered i.v. for 24 days, either once per week at 21 mg/kg and 8 mg/kg, respectively, or three times a week (d1/4/7) at 7.1 mg/kg and 2.7 mg/kg, respectively (both schedules represent the same total weekly dose). Tumor volume and body weight are monitored daily.
(§1) FIG. 1 provides a graphical representation of the changes in mean tumor volume during the time of treatment when using the administration schedule, wherein prodrug and parent drug are given once weekly for 24 days at doses of 21 mg/kg and 8 mg/kg, respectively, with appropriate vehicle controls (5 ml/kg) administered with the same schedule. Data points represent mean values+/−SEM (n=7-8 animals, each animal was engrafted with one tumor).
as §1, with “2” for “1”, “three times per week (d1/4/7)” for “once weekly”, “7.1” for “21”, “2.7 mg/kg in 5 ml/kg,” for “8 mg/kg,”, “points again” for “points”

[3] = Pharmacokinetic studies in xenografted mice (plasma and tumor); type: in vivo, CD-1 Nu/Nu female mice; settings: female, CD-1 Nu/Nu, mouse, iv
Experimental: CD-1 Nu/Nu female mice implanted with the human colon carcinoma SW480 cell line are treated with either the “Parent Drug”, i.e. 3-(4-{1-[2-(4-amino-phenyl)-2-oxo-ethyl]-1H-benzoimidazol-2-yl}-furazan-3-ylamino)-propionitrile, or “Example 1” i.e. S-2,6-diamino-hexanoic acid [4-(2-{2-[4-(2-cyano-ethylamino)-furazan-3-yl]-benzoimidazol-1-yl}-acetyl)-phenyl]-amide hydrochloride salt, when the tumor size reached approximately 150 mm^3+/−10%. Mice (33 per compound) are treated i.v. […]
After the 4th application (4th week), three mice/sampling point from the “Parent Drug” and “Example 1” groups are culled before and 5 min, 15 min, 30 min, 45 min, 1 h, 1.5 h, 2 h, 4 h, 6 h and 24 h post-administration. Blood is collected by cardiac puncture into K3EDTA tubes kept on ice until centrifugation at 4° C. Plasma is stored at −20° C. At necropsy, tumors are removed and weighed. Tumors are stored at −20° C. Plasma and tumor samples are analyzed by LC-MS/MS. Pharmacokinetic parameters are calculated using WinNonLin 5.2. All results for “Example 1” represent the free base.

[4] = Determination of kinetic solubility; type: physicochemical; settings: aqueous buffer, kinetic from dmso stock, 2.5% DMSO, room temperature, read-out: C eff
Experimental: Compounds, provided as 20 mM or 10 mM stock solutions in 100% DMSO, are diluted 1:40 in aqueous buffer to a concentration of 0.5 mM or 0.25 mM, respectively, with 2.5% residual DMSO. The pH 6.5 buffer consists of 0.05 M 3-(N-morpholino)-2-hydroxypropanesulfonic acid (MOPSO) adjusted to the target pH with NaOH. Buffers at pH 5 and pH 3 are prepared from commercially available concentrates (Titrisol®, Merck). The samples are then incubated at room temperature for 6 hours with gentle shaking followed by vacuum filtration through a MultiScreen DV plate (Durapore hydrophilic PVDF membrane, 0.65 μm pore size, Millipore). The filtrates are adjusted to 20% acetonitrile and analyzed by UV spectroscopy to obtain the absorption maximum and the corresponding wavelength. The concentration of compound in the filtrate is calculated based on the linear part of a standard curve constructed using 3 to 5 known concentrations of each sample in aqueous buffer supplemented with 20% acetonitrile.

[5] = Prodrug-drug conversion in full blood; type: in vitro ADME; settings: fresh heparinised rat blood, 37° C., after 120 min
Experimental: 495 μL fresh heparinised rat blood are spiked with 5 μL of a 1 mg/mL DMSO solution of the analyte (prodrug) at 37° C. After t=0, 5, 15, 30, 60 and 120 min, a blood sample is taken and precipitated. Therefore to 50 μL blood sample or spiked blood sample 150 μL acetonitrile containing an internal standard are added. Samples are centrifuged and 20 μl of the supernatant are injected into the HPLC system for determination of compound concentration (prodrug and parent drug) by LC-MS/MS analysis.
For calibration, a standard curve is prepared with a compound concentration range from 10 to 10000 ng/mL in fresh heparine rat blood. Therefore the blood is spiked (2 μL DMSO solution in 198 μL fresh rat blood) and precipitated like unknown samples.

[6] = In vivo pharmacokinetic studies, intravenous administration, Vena saphena screening method; set-up: species or system male NMRI mice; settings: mice, i.v. administration of the prodrug
Experimental: The compounds are evaluated in vivo after intravenous administration to male NMRI mice using the Vena saphena screening method.
A dose of 1 mg/kg of the compound is administered i.v. as a bolus (5 mL/kg). Serial blood samples (40 μL) are drawn after puncture of the saphenous vein and collected in a sodium heparin coated capillary tube from two mice per time point at pre-dose, 5 min, 15 min, 30 min, 45 min, 1 h, 2 h, 4 h, 6 h, 8 h and 24 h after intravenous administration.
Blood samples are weighed and the blood quenched in 300 μl stop solution consisting of acetonitrile/water (80:20) and an internal standard.
Blood concentrations of the compound (prodrug) and its parent drug are determined using LC-MS/MS analysis with a limit of quantification of 4 to 40 ng/mL.
Mean arithmetic plasma/blood concentrations are calculated using BLQ (below limit of quantitation)−value of zero if necessary. • Mean AUCinfIV [ng*h/mL] The area under the blood concentration-time curve for a mean normalized (1 mg/kg) iv application from time zero to the last sampling time with a concentration above the limit of quantification. • Mean AUCinfIV is calculated according to the linear trapezoidal rule.
In a study mice are intravenously treated with prodrugs according to the invention, followed by determination of the blood concentration of the drug. […]

Compound: N#CCCNc1nonc1-c1nc2ccccc2n1CC(=O)c1ccc(NC(=O)[C@@H](N)CCCCN)cc1 [Example 1, S-2,6-diamino-hexanoic acid [4-(2-{2-[4-(2-cyano-ethylamino)-furazan-3-yl]-benzoimidazol-1-yl}-acetyl)-phenyl]-amide]
- MTD [1]: 21 mg/kg
- final T/C (ratio of tumor volume in the treatment group vs. the control group) at day 24 [2]: 34%
- final T/C (day 24) ([2]; parent drug 2.7 mg/kg): 26%
- AUC(0-t) ([3]; plasma, analyte Example 1 (free base), after i.v. 19.6 mg Example 1, xenografted mice, read-out: AUClast of Example 1 in plasma): 21100 ng·h/mL
- Cmax ([3]; plasma, analyte Example 1 (free base), after i.v. 19.6 mg Example 1, xenografted mice, read-out: Cmax of Example 1 in plasma): 81900 ng/mL
- half-life ([3]; plasma, analyte Example 1 (free base), after i.v. 19.6 mg Example 1, xenografted mice, read-out: T1/2 of Example 1 in plasma (converted)): 5.5 h
- AUC(0-t) ([3]; tumor, analyte Example 1 (free base), after i.v. 19.6 mg Example 1, xenografted mice, read-out: AUClast of Example 1 in tumors): 29300 ng·h/mL
- Cmax ([3]; tumor, analyte Example 1 (free base), after i.v. 19.6 mg Example 1, xenografted mice, read-out: Cmax of Example 1 in tumors): 6010 ng/mL
- half-life ([3]; tumor, analyte Example 1 (free base), after i.v. 19.6 mg Example 1, xenografted mice, read-out: T1/2 of Example 1 in tumors (converted)): 9.6 h
- solubility kinetic at 6 h ([4]; pH 3.0 buffer): > 200 µM
- solubility kinetic at 6 h ([4]; pH 5.0 buffer): > 200 µM
- solubility kinetic at 6 h ([4]; pH 6.5 buffer): 190 µM (≈ 98 µg/mL)

Compound: NCC(=O)Nc1ccc(C(=O)Cn2c(-c3nonc3N)nc3ccccc32)cc1 [Example 12, 2-Amino-N-(4-{2-[2-(4-amino-furazan-3-yl)-benzoimidazol-1-yl]-acetyl}-phenyl)-acetamide]
- conversion of prodrug into its parent drug [5]: completely converted

Compound: NCC(=O)Nc1nonc1-c1nc2ccccc2n1CC(=O)c1ccc(N)cc1 [Example 13, 2-Amino-N-(4-{1-[2-(4-amino-phenyl)-2-oxo-ethyl]-1H-benzoimidazol-2-yl}-furazan-3-yl)-acetamide]
- conversion of prodrug into its parent drug [5]: approximately 74%

Compound: CN(C)/C=N/c1ccc(C(=O)Cn2c(-c3nonc3NCCC#N)nc3ccccc32)cc1 [Example 14, N′-[4-(2-{2-[4-(2-Cyano-ethylamino)-furazan-3-yl]-benzoimidazol-1-yl}-acetyl)-phenyl]-N,N-dimethyl-formamidine]
- levels of the parent drug after intravenous administration [6]: no significant levels

Compound: N#CCCNc1nonc1-c1nc2ccccc2n1CC(=O)c1ccc(NS(=O)(=O)O)cc1 [Example 15, [4-(2-{2-[4-(2-Cyano-ethylamino)-furazan-3-yl]-benzoimidazol-1-yl}-acetyl)-phenyl]-sulfamic acid]
- levels of the parent drug after intravenous administration [6]: no significant levels

Compound: N#CCCNc1nonc1-c1nc2ccccc2n1CC(=O)c1ccc(N)cc1 [Parent Drug, 3-(4-{1-[2-(4-Amino-phenyl)-2-oxo-ethyl]-1H-benzoimidazol-2-yl}-furazan-3-ylamino)-propionitrile, reference compound]
- MTD ([1]; i.v. once weekly, set 15-20% lower than dose causing body weight loss, read-out: MTD in tumor-bearing mice): 8 mg/kg
- final T/C (ratio of tumor volume in the treatment group vs. the control group) at day 24 [2]: 45%
- final T/C (day 24) ([2]; parent drug 2.7 mg/kg): 54%
- death of animals during treatment ([2]; three times per week i.v., parent drug 2.7 mg/kg): one animal in the parent drug-group (three times per week treatment) died at day 10
- Cmax ([3]; plasma, after i.v. 8 mg/kg Parent Drug, 4th application, xenografted mice, read-out: Cmax of Parent Drug in plasma): 11000 ng/mL
- AUC(0-t) ([3]; plasma, after i.v. 8 mg/kg Parent Drug, xenografted mice, read-out: AUClast of Parent Drug in plasma): 44800 ng·h/mL
- half-life ([3]; plasma, after i.v. 8 mg/kg Parent Drug, xenografted mice, read-out: T1/2 of Parent Drug in plasma (converted)): 3.2 h
- Cmax ([3]; tumor, after i.v. 8 mg/kg Parent Drug, 4th application, xenografted mice, read-out: Cmax of Parent Drug in tumors): 3210 ng/mL
- AUC(0-t) ([3]; tumor, after i.v. 8 mg/kg Parent Drug, xenografted mice, read-out: AUClast of Parent Drug in tumors): 45500 ng·h/mL
- half-life ([3]; tumor, after i.v. 8 mg/kg Parent Drug, xenografted mice, read-out: T1/2 of Parent Drug in tumors (converted)): 5.4 h
- solubility kinetic at 6 h ([4]; pH 3.0 buffer): < 10 µM
- solubility kinetic at 6 h ([4]; pH 5.0 buffer): < 10 µM
- solubility kinetic at 6 h ([4]; pH 6.5 buffer): < 10 µM

More lines, now with the values ahead:

- solubility kinetic at 6 h ([4]; pH 3.0 buffer): > 200 µM
- solubility kinetic at 6 h ([4]; pH 5.0 buffer): 55 µM (≈ 25.2 µg/mL)
- solubility kinetic at 6 h ([4]; pH 6.5 buffer): 91 µM (≈ 41.7 µg/mL)
Compound: C[C@H](N)C(=O)Nc1ccc(C(=O)Cn2c(-c3nonc3NCCC#N)nc3ccccc32)cc1 [Example 2]

- solubility kinetic at 6 h ([4]; pH 3.0 buffer): > 200 µM
- solubility kinetic at 6 h ([4]; pH 5.0 buffer): 71 µM (≈ 31.6 µg/mL)
- solubility kinetic at 6 h ([4]; pH 6.5 buffer): 106 µM (≈ 47.1 µg/mL)
Compound: N#CCCNc1nonc1-c1nc2ccccc2n1CC(=O)c1ccc(NC(=O)CN)cc1 [Example 3]

- solubility kinetic at 6 h ([4]; pH 3.0 buffer): 189 µM (≈ 94.6 µg/mL)
- solubility kinetic at 6 h ([4]; pH 5.0 buffer): 37 µM (≈ 18.5 µg/mL)
- solubility kinetic at 6 h ([4]; pH 6.5 buffer): 20 µM (≈ 10 µg/mL)
Compound: CC(C)C[C@H](N)C(=O)Nc1ccc(C(=O)Cn2c(-c3nonc3NCCC#N)nc3ccccc32)cc1 [Example 11]

Source: patent US8802858B2, “Furazanobenzimidazoles as prodrugs to treat neoplastic or autoimmune diseases” (Basilea Pharmaceutica AG, priority 2009, dated 2014)
